For this experiment, the target named is Voltage-gated inwardly rectifying potassium channel KCNH2 (Homo sapiens, UniProt Q12809).
Voltage-gated inwardly rectifying potassium channel KCNH2, sequence (Q12809 whole entry): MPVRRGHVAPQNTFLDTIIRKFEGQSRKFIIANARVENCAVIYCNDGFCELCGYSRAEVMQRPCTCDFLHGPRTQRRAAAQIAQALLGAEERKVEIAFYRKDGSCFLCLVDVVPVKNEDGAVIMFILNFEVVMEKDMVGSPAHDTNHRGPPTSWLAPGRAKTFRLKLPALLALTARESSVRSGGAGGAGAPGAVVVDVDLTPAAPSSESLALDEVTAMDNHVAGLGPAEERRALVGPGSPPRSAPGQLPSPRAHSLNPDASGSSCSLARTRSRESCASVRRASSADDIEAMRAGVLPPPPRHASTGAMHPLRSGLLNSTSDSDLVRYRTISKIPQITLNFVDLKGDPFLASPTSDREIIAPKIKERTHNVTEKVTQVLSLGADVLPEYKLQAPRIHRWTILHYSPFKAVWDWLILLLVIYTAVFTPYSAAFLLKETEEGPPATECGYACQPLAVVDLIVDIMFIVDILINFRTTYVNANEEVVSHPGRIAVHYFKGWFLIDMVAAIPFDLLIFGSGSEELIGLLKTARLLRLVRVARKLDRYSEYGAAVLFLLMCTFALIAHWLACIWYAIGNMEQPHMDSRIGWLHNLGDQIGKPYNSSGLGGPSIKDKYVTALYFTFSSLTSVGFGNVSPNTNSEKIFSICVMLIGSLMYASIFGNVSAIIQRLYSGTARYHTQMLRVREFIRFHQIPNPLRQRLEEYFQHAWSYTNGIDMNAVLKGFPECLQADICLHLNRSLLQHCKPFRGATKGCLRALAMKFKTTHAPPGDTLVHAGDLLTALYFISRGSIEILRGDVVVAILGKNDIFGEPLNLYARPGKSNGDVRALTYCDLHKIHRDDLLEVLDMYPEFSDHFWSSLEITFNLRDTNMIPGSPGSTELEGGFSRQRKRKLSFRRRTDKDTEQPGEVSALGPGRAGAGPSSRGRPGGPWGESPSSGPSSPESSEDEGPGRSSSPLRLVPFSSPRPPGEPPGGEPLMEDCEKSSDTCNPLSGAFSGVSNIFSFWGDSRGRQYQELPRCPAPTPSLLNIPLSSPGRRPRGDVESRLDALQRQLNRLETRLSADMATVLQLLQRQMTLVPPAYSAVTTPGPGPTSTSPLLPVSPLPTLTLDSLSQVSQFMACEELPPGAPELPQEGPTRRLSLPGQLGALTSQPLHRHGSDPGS

Description: Inhibition of hERG expressed in HEK cells by patch clamp method

`CCNC(=N)NC(=O)Nc1c(CC)cc(S(=O)(=O)NCC)cc1CC` returned an IC50 of over 30 µM.
`CCNC(=N)NC(=O)Nc1c(CC)cc(C(=O)NCc2ccccc2)cc1CC` registered an IC50 of over 30 µM.
As to `CCNC(=N)NC(=O)Nc1c(CC)cc(NS(=O)(=O)c2ccccc2)cc1CC`, the 50% inhibitory concentration (IC50) was over 30 µM.
Compound `CCNC(=N)NC(=O)Nc1c(CC)cc(C(=O)NC(C)C)cc1CC` came in with a half-inhibitory concentration (IC50) of over 30 µM.
